Laboratory results from ChEMBL document CHEMBL3137667, “[Drug-induced liver injury; fourteenth updated edition of the bibliographic database of liver injuries and related drugs]” (Gastroenterol Clin Biol, 2004).

Key:
[1] = Highest frequency of acute liver toxicity observed during clinical trials, expressed as a percentage. [column '% AIGUE' in source]; details: human
[2] = human
[3] = Highest frequency of moderate liver toxicity observed during clinical trials, expressed as a percentage. [column '% BIOL' in source]; details: human
[4] = human, serum
[5] = human; remark: listed apart in the source
[6] = human; remark: listed apart in the source
[7] = human; remark: listed apart in the source
[8] = human; remark: listed apart in the source
[9] = human; remark: listed apart in the source
[10] = human, serum, 4383 h
[11] = human; remark: listed apart in the source
[12] = human, serum; remark: listed apart in the source
[13] = human; remark: listed apart in the source
[14] = human; remark: listed apart in the source
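For Hepatotoxicity (association with vascular disease) in this document: count of indexed literature references reporting vascular liver injury in humans, e.g. peliosis hepatitis, hepatic veno-occlusive disease or Budd-Chiari syndrome.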
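For Hepatotoxicity (benign tumour) in this document: value is a count of indexed literature references citing a benign tumour confirmed by histopathology.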
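For Hepatotoxicity (choleostasis) in this document: human cholestatic liver injury, shown by histopathology or by peak ALT or AST elevation over alkaline phosphatase ratio below 2, value counts indexed literature reports.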
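For Hepatotoxicity (chronic liver disease) in this document: chronic liver injury confirmed by histopathology or persistently raised serum aminotransferase activity beyond 6 months, value given as the count of indexed literature references.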
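For Hepatotoxicity (cirrhosis) in this document: value is a count of indexed literature references reporting cirrhosis confirmed by histopathology.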
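For Hepatotoxicity (cytolytic) in this document: human cytolytic liver injury, shown by histopathology or by a ratio above 5 of peak ALT or AST elevation to alkaline phosphatase elevation, value counts indexed references.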
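For Hepatotoxicity (granulomatous hepatitis) in this document: value is a count of indexed literature references reporting granulomatous liver disease confirmed by histopathology.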
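For Hepatotoxicity (malignant tumour) in this document: malignant tumour confirmed by histopathology, value gives the count of indexed literature references reporting it.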
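For Hepatotoxicity (severe hepatitis) in this document: human clinical data: severe hepatitis, meaning potentially life-threatening liver failure or clinically observed cases, the value counts how many indexed literature references report it.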
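For Hepatotoxicity (steatosis) in this document: steatosis confirmed by histopathology, value is the count of indexed references.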

| Compound | Hepatotoxicity (acute) [1] [%] | Hepatotoxicity (benign tumour) [2] | Hepatotoxicity (moderate) [3] [%] | Hepatotoxicity (acute) [4] | Hepatotoxicity (cytolytic) [5] | Hepatotoxicity (granulomatous hepatitis) [6] | Hepatotoxicity (severe hepatitis) [7] | Hepatotoxicity (cirrhosis) [8] | Hepatotoxicity (steatosis) [9] | Hepatotoxicity (chronic liver disease) [10] | Hepatotoxicity (malignant tumour) [11] | Hepatotoxicity (moderate) [12] | Hepatotoxicity (association with vascular disease) [13] | Hepatotoxicity (choleostasis) [14] | Hepatotoxicity (acute) ([1]; Liver) [%] | Hepatotoxicity (moderate) ([3]; Liver) [%] | Hepatotoxicity (cytolytic) ([5]; Liver) | Hepatotoxicity (granulomatous hepatitis) ([6]; Liver) | Hepatotoxicity (severe hepatitis) ([7]; Liver) | Hepatotoxicity (choleostasis) ([14]; Liver) |
| --- | --- | --- | --- | --- | --- | --- | --- | --- | --- | --- | --- | --- | --- | --- | --- | --- | --- | --- | --- | --- |
| CC(=O)OCOC(=O)C1=C(COC(N)=O)SC2[C@H]([C@H](C)O)C(=O)N12 (stereo partly drawn) | 0 | 0 | 20 | 0 | 0 | 0 | 0 | 0 | 0 | 0 | 0 | 25 | 0 | 0 |  |  |  |  |  |  |
| LENTINAN | 0 | 0 | 2 | 0 | 0 | 0 | 0 | 0 | 0 | 0 | 0 | 2 | 0 | 0 |  |  |  |  |  |  |
| CN(C)CCOC(c1ccccc1)c1ccccc1 [DIPHENHYDRAMINE] |  | 0 |  | 0 |  |  |  | 0 | 0 | 0 | 0 | 1 | 0 |  | 0 | 1.4 | 0 | 0 | 0 | 0 |
| CC(C)c1nc(N(C)S(C)(=O)=O)nc(-c2ccc(F)cc2)c1/C=C/[C@@H](O)C[C@@H](O)CC(=O)O [ROSUVASTATIN] | 0.1 | 0 | 0 | 1 | 1 | 0 | 0 | 0 | 0 | 0 | 0 | 0 | 0 | 0 |  |  |  |  |  |  |
| O=C(O)C(=O)O [OXALIC ACID] | 0 | 0 | 0 | 0 | 0 | 0 | 0 | 0 | 0 | 0 | 0 | 1 | 0 | 0 |  |  |  |  |  |  |
| COc1cc2[nH]c(C)c(CCN3CCN(c4ccccc4)CC3)c2cc1OC [OXYPERTINE] | 0 | 0 | 0 | 0 | 0 | 0 | 0 | 0 | 0 | 0 | 0 | 1 | 0 | 0 |  |  |  |  |  |  |
| CC(=O)OCC(=O)[C@@]1(O)CC[C@H]2[C@@H]3CCC4=CC(=O)C=C[C@]4(C)[C@@]3(F)[C@@H](O)C[C@@]21C [ISOFLUPREDONE ACETATE] | 0 | 0 | 0 | 0 | 0 | 0 | 0 | 0 | 0 | 0 | 0 | 2 | 0 | 0 |  |  |  |  |  |  |
| C[C@H]1C[C@H]2[C@@H]3CCC4=CC(=O)C=C[C@]4(C)[C@@]3(F)[C@@H](O)C[C@]2(C)[C@@]1(O)C(=O)CO [BETAMETHASONE] | 0 | 0 | 0 | 0 | 0 | 0 | 0 | 0 | 1 | 0 | 0 | 0 | 0 | 0 |  |  |  |  |  |  |
| [Se] | 0 | 0 | 0 | 0 | 0 | 0 | 0 | 0 | 1 | 0 | 0 | 0 | 0 | 0 |  |  |  |  |  |  |
| O=C1NCCN1CCN1CCC(c2cn(-c3ccc(F)cc3)c3ccc(Cl)cc23)CC1 [SERTINDOLE] | 0 | 0 | 1.4 | 0 | 0 | 0 | 0 | 0 | 0 | 0 | 0 | 1 | 0 | 0 |  |  |  |  |  |  |
| CCOc1ccccc1OCC1CNCCO1 (stereo not drawn) [VILOXAZINE] |  | 0 |  | 1 |  |  |  | 0 | 0 | 0 | 0 | 2 | 0 |  | 0 | 0 | 1 | 0 | 0 | 0 |
| CN1CCN(c2c(F)cc3c(=O)c(C(=O)O)cn(CCF)c3c2F)CC1 [FLEROXACIN] | 0 | 0 | 8.3 | 0 | 0 | 0 | 0 | 0 | 0 | 0 | 0 | 13 | 0 | 0 |  |  |  |  |  |  |
